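Results reflect a 48-hour exposure of cells in 96-well plates to compound at five concentrations. GI50 marks 50% less growth.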 Calls of active or inactive are those of the source. No stated cut-off is given here; in the data, active = GI50 up to about 1.1 µM and inactive = higher.
Key:
Test in all cases: DTP human tumour cell line panel, 48 h
786-0 = system: 786-0
CCRF-CEM = system: CCRF-CEM
RXF 393 = system: RXF 393
SF-295 = system: SF-295
NCI-H460 = system: NCI-H460
HOP-62 = system: HOP-62
CAKI-1 = system: CAKI-1
M14 = system: M14
UACC-62 = system: UACC-62
SNB-75 = system: SNB-75
HCC 2998 = system: HCC 2998
A549 = system: A549
K562 = system: K562
HT-29 = system: HT-29
HOP-92 = system: HOP-92
SR = system: SR

Measured: GI50

CCOP1(=O)C=C(C)C(=C(Cl)Cl)C(C)=C1 (stereo not given)
inactive: 786-0 23.7 µM | CCRF-CEM 10.2 µM | RXF 393 15.6 µM | SF-295 6.24 µM | NCI-H460 17.5 µM | HOP-62 15.4 µM | CAKI-1 11.6 µM | M14 8.32 µM | UACC-62 6.46 µM | SNB-75 3.33 µM | HCC 2998 14.6 µM | A549 8.28 µM | K562 3.52 µM | HT-29 4.72 µM

Cc1ccc(NC(=O)/C(=N\Nc2ccc([N+](=O)[O-])cc2[N+](=O)[O-])C2C(=O)NC(=O)NC2=O)cc1
inactive: 786-0 > 100 µM | HOP-92 > 100 µM | CCRF-CEM 31.8 µM | RXF 393 48.9 µM | SF-295 46.1 µM | NCI-H460 71 µM | HOP-62 27.5 µM | SR > 100 µM | CAKI-1 > 100 µM | M14 89.7 µM | UACC-62 7.13 µM | SNB-75 26.7 µM | A549 50.9 µM | K562 26.2 µM | HT-29 49.5 µM

CC(C)N(C(=O)C12C3C4C5C3C1(C#N)C5C42)C(C)C (stereo not given)
inactive: 786-0 > 100 µM | HOP-92 > 100 µM | CCRF-CEM > 100 µM | SF-295 > 100 µM | NCI-H460 > 100 µM | HOP-62 > 100 µM | SR > 100 µM | CAKI-1 > 100 µM | M14 > 100 µM | UACC-62 > 100 µM | SNB-75 > 100 µM | HCC 2998 > 100 µM | A549 > 100 µM | K562 > 100 µM | HT-29 > 100 µM

CN(C)CC(/C(Cc1ccccc1)=N\NC(=O)C[n+]1ccccc1)c1ccccc1 (stereo not given)
inactive: 786-0 > 100 µM | HOP-92 > 100 µM | CCRF-CEM > 100 µM | RXF 393 > 100 µM | SF-295 > 100 µM | NCI-H460 > 100 µM | HOP-62 > 100 µM | SR > 100 µM | CAKI-1 > 100 µM | M14 > 100 µM | UACC-62 > 100 µM | SNB-75 > 100 µM | HCC 2998 > 100 µM | A549 > 100 µM | K562 > 100 µM | HT-29 > 100 µM

CCOC(=O)C1S(=O)(=O)OCCOS1(=O)=O
inactive: 786-0 > 100 µM | HOP-92 > 100 µM | CCRF-CEM > 100 µM | SF-295 > 100 µM | HOP-62 > 100 µM | SR > 100 µM | CAKI-1 > 100 µM | M14 > 100 µM | UACC-62 > 100 µM | SNB-75 > 100 µM | HCC 2998 > 100 µM | A549 > 100 µM | K562 > 100 µM | HT-29 > 100 µM

Cc1ccc(NC(=O)c2cc3cc(/N=N/c4ccc(Br)cc4)ccc3oc2=O)cc1
inactive: 786-0 > 100 µM | HOP-92 > 100 µM | RXF 393 > 100 µM | SF-295 > 100 µM | NCI-H460 > 100 µM | HOP-62 > 10 µM | SR 61 µM | CAKI-1 30.5 µM | M14 > 10 µM | SNB-75 > 100 µM | HCC 2998 > 100 µM | A549 > 100 µM | HT-29 > 100 µM

O=C(O)c1ccccc1C1c2ccc(Cl)cc2Oc2cc(Cl)ccc21
inactive: 786-0 > 100 µM | HOP-92 > 100 µM | CCRF-CEM > 100 µM | RXF 393 > 100 µM | SF-295 > 100 µM | NCI-H460 > 100 µM | HOP-62 > 100 µM | CAKI-1 > 100 µM | M14 > 100 µM | UACC-62 > 100 µM | SNB-75 > 100 µM | HCC 2998 > 100 µM | A549 > 100 µM | K562 > 100 µM | HT-29 > 100 µM

COc1cccc(/C=C\c2cc(OC)c(OC)c(OC)c2)c1
active: 786-0 0.575 µM | NCI-H460 0.562 µM | SR 0.498 µM | CAKI-1 0.887 µM | M14 0.604 µM | UACC-62 0.455 µM | SNB-75 0.652 µM | A549 0.668 µM | K562 0.373 µM | HT-29 0.423 µM
inactive: HOP-92 22.6 µM | CCRF-CEM 1.21 µM | HOP-62 1.51 µM | HCC 2998 3.94 µM

N#Cc1ccccc1NC(=O)C(=O)C(C(=O)c1ccccc1-c1ccccc1)C1OC(=O)c2ccccc21 (stereo not given)
inactive: 786-0 14.8 µM | HOP-92 20 µM | CCRF-CEM 18.4 µM | RXF 393 11.6 µM | SF-295 17.6 µM | NCI-H460 18.2 µM | HOP-62 11.9 µM | M14 15.4 µM | UACC-62 16.7 µM | SNB-75 14.6 µM | HCC 2998 15.5 µM | A549 > 100 µM | K562 21.7 µM | HT-29 33.3 µM

From ChEMBL document CHEMBL1201862, “PubChem BioAssay data set” (2004)
